Measured values published in patent EP4273147A1, “SUBSTITUTED SPIROLACTAMS, SALTS THEREOF AND THEIR USE AS HERBICIDALLY ACTIVE SUBSTANCES” (Bayer Aktiengesellschaft, priority 2022, dated 2023).

What was measured:
[1] = system: BRSNW; test: Pre-emergence effects on crop plants (Table D5); format: in vivo, Brassica napus; settings: crop plant; application rate 320 g/ha; visual grading after ca. 3 weeks
Source text: Seeds of mono- and dicotyledonous weed plants and crop plants were sown, in plastic or organic planting pots, in sandy loam and covered with soil. The compounds according to the invention, formulated in the form of wettable powders (WP) or as emulsifiable concentrates (EC), were applied to the surface of the covering soil as aqueous suspension or emulsion, with the addition of 0.5% of an additive, at an application rate of 600 1 of water/ha (converted).
Following treatment, the pots were placed in a greenhouse and kept under optimum growth conditions for the test plants.

[2] = system: ZEAMX; test: Pre-emergence effects on crop plants (Table D1); format: in vivo, Zea mays; settings: crop plant; application rate 80 g/ha; visual grading after ca. 3 weeks
[3] = system: TRZAS; test: Post-emergence effects on crop plants (Table F2); format: in vivo, Triticum aestivum; settings: application rate 320 g/ha, crop plant TRZAS
Source text: (§1) 2 to 3 weeks after sowing, the test plants were sprayed in the single-leaf stage.

[4] = system: ORYZA; test: Post-emergence effects on crop plants (Table F3); format: in vivo, Oryza sativa; settings: application rate 320 g/ha, crop plant ORYZA
Source text: as §1

[5] = system: ALOMY; test: Herbicidal pre-emergence action, section C (Table C2); format: in vivo, Alopecurus myosuroides; settings: application rate 320 g/ha; visual grading after ca. 3 weeks
[6] = system: ZEAMX; test: Post-emergence effects on crop plants (Table F1); format: in vivo, Zea mays; settings: application rate 320 g/ha, crop plant ZEAMX
Source text: as §1

[7] = system: GLXMA; test: Pre-emergence effects on crop plants (Table D4); format: in vivo, Glycine max; settings: crop plant; application rate 80 g/ha; visual grading after ca. 3 weeks
[8] = system: ECHCG; test: Herbicidal pre-emergence action (Table A2); format: in vivo, Echinochloa crus-galli; settings: application rate 320 g/ha; visual grading after ca. 3 weeks
How it was run: (§2)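 Double sowing per pot (1 monocot + 1 dicot weed species), sandy loam substrate, seeds covered with soil.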

[9] = system: VERPE; test: Herbicidal post-emergence action (Table B10); format: in vivo, Veronica persica; settings: application rate 1280 g/ha
How it was run: (§3)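 Sow weeds in sandy loam pots, one species each; grow in greenhouse 2–3 weeks to one-leaf stage; treat; hold ~3 weeks under optimum conditions; rate damage visually vs untreated (0–100%).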

[10] = system: AMARE; test: Herbicidal pre-emergence action, section C (Table C3); format: in vivo, Amaranthus retroflexus; settings: application rate 320 g/ha; visual grading after ca. 3 weeks
[11] = system: ECHCG; test: Herbicidal post-emergence action, section E (Table E5); format: in vivo, Echinochloa crus-galli; settings: application rate 320 g/ha; assessed visually after ca. 3 weeks
Source text: as §1

[12] = system: ECHCG; test: Herbicidal pre-emergence action, section C (Table C6); format: in vivo, Echinochloa crus-galli; settings: application rate 320 g/ha; visual grading after ca. 3 weeks
[13] = system: POAAN; test: Herbicidal post-emergence action (Table B7); format: in vivo, Poa annua; settings: application rate 1280 g/ha
How it was run: as §3

[14] = system: SETVI; test: Herbicidal pre-emergence action, section C (Table C10); format: in vivo, Setaria viridis; settings: application rate 80 g/ha; visual grading after ca. 3 weeks
[15] = system: ECHCG; test: Herbicidal post-emergence action (Table B3); format: in vivo, Echinochloa crus-galli; settings: application rate 1280 g/ha; rated visually after about 3 weeks
How it was run: as §3

[16] = system: VIOTR; test: Herbicidal pre-emergence action, section C (Table C12); format: in vivo, Viola tricolor; settings: application rate 320 g/ha; visual grading after ca. 3 weeks
[17] = system: LOLRI; test: Herbicidal pre-emergence action (Table A3); format: in vivo, Lolium rigidum; settings: application rate 320 g/ha; visual grading after ca. 3 weeks
How it was run: as §2

[18] = system: SETVI; test: Herbicidal pre-emergence action (Table A5); format: in vivo, Setaria viridis; settings: application rate 1280 g/ha; visual grading after ca. 3 weeks
How it was run: as §2

[19] = system: TRZAS; test: Pre-emergence effects on crop plants (Table D2); format: in vivo, Triticum aestivum; settings: crop plant; application rate 80 g/ha; visual grading after ca. 3 weeks
[20] = system: BRSNW; test: Post-emergence effects on crop plants (Table F5); format: in vivo, Brassica napus; settings: application rate 320 g/ha, crop plant BRSNW
Source text: as §1

[21] = system: DIGSA; test: Herbicidal pre-emergence action, section C (Table C5); format: in vivo, Digitaria sanguinalis; settings: application rate 320 g/ha; visual grading after ca. 3 weeks
[22] = system: MATIN; test: Herbicidal pre-emergence action, section C (Table C8); format: in vivo, Matricaria inodora; settings: application rate 320 g/ha; visual grading after ca. 3 weeks
[23] = system: GLXMA; test: Post-emergence effects on crop plants (Table F4); format: in vivo, Glycine max; settings: application rate 320 g/ha, crop plant GLXMA
Source text: as §1

[24] = system: VERPE; test: Herbicidal pre-emergence action, section C (Table C11); format: in vivo, Veronica persica; settings: application rate 320 g/ha; visual grading after ca. 3 weeks
[25] = system: ABUTH; test: Herbicidal pre-emergence action, section C (Table C1); format: in vivo, Abutilon theophrasti; settings: application rate 320 g/ha; visual grading after ca. 3 weeks

O=C1N(Cc2ccccc2)CCCC12CCCN(Cc1ccccc1Cl)C2=O (racemic) [I-066]
80%: post-emergence activity against ECHCG [11] | pre-emergence activity against ECHCG [12] | pre-emergence activity against VIOTR [16]
100%: pre-emergence activity against ECHCG [8] | pre-emergence activity against SETVI [14] | pre-emergence activity against LOLRI [17] | pre-emergence activity against SETVI [18]
10%: pre-emergence activity against ZEAMX [2]
90%: pre-emergence activity against ALOMY [5] | post-emergence activity against VERPE [9] | pre-emergence activity against AMARE [10] | post-emergence activity against POAAN [13] | post-emergence activity against ECHCG [15]
0%: pre-emergence activity against BRSNW [1] | post-emergence activity against TRZAS [3] | post-emergence activity against ORYZA [4] | post-emergence activity against ZEAMX [6] | pre-emergence activity against GLXMA [7] | pre-emergence activity against TRZAS [19] | post-emergence activity against BRSNW [20]

O=C1N(Cc2c(F)cccc2F)CCCC12CCCN(Cc1c(F)cccc1F)C2=O (single isomer, unassigned; (+)) [I-083, (+)-2,8-bis[(2,6-difluorophenyl)methyl]-2,8-diazaspiro[5.5]undecane-1,7-dione]
0%: post-emergence activity against ORYZA [4] | post-emergence activity against ZEAMX [6] | post-emergence activity against GLXMA [23] | post-emergence activity against BRSNW [20]
10%: post-emergence activity against TRZAS [3]
100%: pre-emergence activity against AMARE [10] | pre-emergence activity against MATIN [22] | pre-emergence activity against VIOTR [16] | pre-emergence activity against VERPE [24] | pre-emergence activity against ABUTH [25]
90%: pre-emergence activity against ALOMY [5] | pre-emergence activity against DIGSA [21]
